These results are taken from US6706740B2, “Fungicidal heterocyclic aromatic amides and their compositions, methods of use and preparation” (Dow AgroSciences LLC, priority 1999, dated 2004).

Assay [1] deals with Erysiphe graminis—ERYSGT. The experiment in a line: Powdery Mildew of Wheat, in vivo whole plant, 24 Hour Protectant. The conditions noted are these: Erysiphe, read-out: ERYSGT in vivo 1 Day Protectant.
For assay [2], the system named is Leptosphaeria nodorum—LEPTNO. The experiment in a line: Glume Blotch of Wheat, in vivo whole plant, 24 Hour Protectant. The conditions noted are these: for pest or weed control at 100 ppm: Leptosphaeria, read-out: LEPTNO in vivo 1 Day Protectant.
The subject of assay [3] is Mycosphaerella graminicola (Septoria tritici—SEPTTR). In words: In vitro fungal growth inhibition, Mycosphaerella graminicola (SEPTTR). Conditions: Zymoseptoria tritici, read-out: SEPTTR in vitro Growth Inhibition. In kind it is cell-based.
The test system of assay [4] is Stagonospora nodorum (Leptosphaeria nodorum—LEPTNO). In words: In vitro fungal growth inhibition, Stagonospora nodorum (LEPTNO). In kind it is cell-based. The conditions noted are these: Leptosphaeria, read-out: LEPTNO in vitro Growth Inhibition.
Assay [5] relates to Rhizoctonia solani (RHIZSO). In words: microbe, parasite or virus in culture. In kind it is cell-based. The conditions noted are these: Rhizoctonia solani, read-out: RHIZSO in vitro Growth Inhibition.
The subject of assay [6] is Ustilago maydis (USTIMA). The experiment in a line: microbe, parasite or virus in culture. Conditions: Mycosarcoma maydis, read-out: USTIMA in vitro Growth Inhibition. In kind it is cell-based.
Assay [7] has as its system Magnaporthe grisea (Pyricularia oryzae—PYRIOR). In words: microbe, parasite or virus in culture. In kind it is cell-based. Conditions: Pyricularia oryzae, read-out: PYRIOR in vitro Growth Inhibition.
In assay [8] the test system is Phytophthora infestans (PHYTIN). In words: microbe, parasite or virus in culture. In kind it is cell-based. Conditions: Phytophthora infestans, read-out: PHYTIN in vitro Growth Inhibition.
Assay [9] deals with Septoria tritici—SEPTTR. The experiment in a line: Leaf Blotch of Wheat, in vivo whole plant, 24 Hour Protectant. The conditions noted are these: for pest or weed control at 100 ppm: Zymoseptoria tritici, 24 h, read-out: SEPTTR in vivo 1 Day Protectant.
In assay [10] the test system is Puccinia recondita—PUCCRT. The experiment in a line: Brown Rust of Wheat, in vivo whole plant, 24 Hour Protectant. Conditions: for pest or weed control at 100 ppm: Puccinia, read-out: PUCCRT in vivo 1 Day Protectant.
The test system of assay [11] is Phytophthora infestans—PHYTIN. The experiment in a line: whole plant or invertebrate. In kind it is in vivo. The conditions noted are these: Phytophthora, in Solanum lycopersicum, 24 h, read-out: PHYTIN in vivo 1 Day Protectant.
The mark [12] stands for this setting: 100 ppm spray, wheat, 24 hour protectant, % control of fungal infection vs untreated plants.
The mark [13] stands for this setting: wheat plants sprayed at 100 ppm, inoculated after 24 hours, control of fungal infection vs untreated plants.
Where [14] appears, read: 100 ppm spray, wheat, 24 hour protectant, control of fungal infection vs untreated plants.
Where [15] appears, read: 100 ppm spray, 24 hour protectant, wheat, control of fungal infection vs untreated plants.

Structures are written as SMILES. Where two headings read alike, the source gives them in different places.

Usually inhibition stands for the change of the read-out against control, counted positive when it falls. Turning to `COc1ccnc(C(=O)N[C@H]2COC(=O)[C@H](Cc3ccccc3)[C@@H](OC(=O)C(C)C)[C@H](C)OC2=O)c1OC(=O)COCc1ccccc1` [Compound 656], the pest or weed control at 100 ppm in assay [1] (setting [12]) and in [11] was under 25% each time. In [2] (setting [12]), the “LEPTNO in vivo 1 Day Protectant” value is reported as “+ +”. Also, the inhibition at 25 ppm is under 80% in assay [3] (25 ppm in growth medium); over 80% in [4] (25 ppm in growth medium); under 80% in assay [5]; under 80% in assay [6]; over 80% in assay [7]; under 80% in [8]. Further, the “SEPTTR in vivo 1 Day Protectant” value in assay [9] (setting [12]) is on record as “+ +”. Further, the “PUCCRT in vivo 1 Day Protectant” value in assay [10] (setting [12]) is “+ +”.

As to `O=C(Nc1ccc(Oc2cccc(C(F)(F)F)c2)cc1)c1cscc1O` [Compound 555], the pest or weed control at 100 ppm was under 25% in [1] (setting [13]); 25 to 74% in assay [2] (setting [13]); 25 to 74% in assay [9] (setting [13]); under 25% in [10] (setting [13]); under 25% in assay [11]. Further, the inhibition at 25 ppm in assay [3] (25 ppm in the growth medium) was over 80%; in assay [4] (25 ppm in the growth medium), over 80%; in assay [5], over 80%; in assay [6], under 80%; in assay [7] it was over 80%; in [8] it was over 80%.

As to `COC(=O)C(COC(=O)C(C)c1ccccc1)NC(=O)c1nccc(OC)c1O` (stereo not shown) [Compound 343], the pest or weed control at 100 ppm in [1] (setting [14]) is 25 to 74%; in [2] (setting [14]), 25 to 74%; in [9] (setting [14]), under 25%; in assay [10] (setting [14]), under 25%; in assay [11] it was under 25%. Also, the inhibition at 25 ppm in [3] (25 ppm in growth medium), in assay [4] (25 ppm in growth medium), in assay [5], in assay [6], in assay [7] and in assay [8] was under 80% each time.

As to `COc1ccnc(C(=O)NC2CC3CCC2C3)c1O` (stereo not shown) [Compound 287], the pest or weed control at 100 ppm is under 25% in assay [1] (setting [15]); 25 to 74% in [2] (setting [15]); 25 to 74% in [9] (setting [15]); 25 to 74% in assay [10] (setting [15]); under 25% in assay [11]. For the same molecule, the inhibition at 25 ppm in assay [3] (25 ppm in growth medium) is under 80%; in assay [4] (25 ppm in growth medium), under 80%; in assay [5], over 80%; in assay [6], under 80%; in [7], under 80%; in [8] it was under 80%.

With `C[C@H]1C2CC([C@H]3CCC[C@@H]23)[C@@H]1NC(=O)c1ncccc1O` (stereo partly shown) [Compound 207], the pest or weed control at 100 ppm in assay [1] (setting [15]), in assay [2] (setting [15]), in assay [9] (setting [15]), in assay [10] (setting [15]) and in [11] was under 25% throughout. For the same molecule, the inhibition at 25 ppm in [3] (25 ppm in growth medium) was over 80%; in assay [4] (25 ppm in growth medium), over 80%; in assay [5], under 80%; in assay [6], under 80%; in assay [7] it was over 80%; in assay [8] it was under 80%.

In the case of `COCCC(=O)Oc1cccnc1C(=O)N[C@H]1COC(=O)[C@H](Cc2ccccc2)[C@@H](OC(=O)C(C)C)[C@H](C)OC1=O` [Compound 569], the pest or weed control at 100 ppm was under 25% in assay [1] (setting [13]) and 25 to 74% in [11]. In [2] (setting [13]), the “LEPTNO in vivo 1 Day Protectant” value is recorded as “+ +”. Besides, the inhibition at 25 ppm in [3] (25 ppm in the growth medium) is over 80%; in assay [4] (25 ppm in the growth medium), over 80%; in assay [5], under 80%; in assay [6], under 80%; in assay [7], over 80%; in [8] it was under 80%. The “SEPTTR in vivo 1 Day Protectant” value in assay [9] (setting [13]) is given as “+ +”. In [10] (setting [13]), the “PUCCRT in vivo 1 Day Protectant” value is listed as “+ +”.

For `COc1ccnc(C(=O)N[C@H]2CO[C@H](C(C)Cc3ccc(C(C)(C)C)cc3)OC2)c1O` (stereo partly shown) [Compound 316], the pest or weed control at 100 ppm is under 25% in [1] (setting [15]), 25 to 74% in [2] (setting [15]), under 25% in assay [9] (setting [15]) and under 25% in assay [11]. For the same molecule, the inhibition at 25 ppm in [3] (25 ppm in growth medium) was under 80%; in assay [4] (25 ppm in growth medium), over 80%; in [5], under 80%; in assay [6], over 80%; in assay [7] it was over 80%; in [8], under 80%. Further, the “PUCCRT in vivo 1 Day Protectant” value in assay [10] (setting [15]) was “+ +”.

As to `COc1ccnc(C(=O)Nc2cc(C)c(OC(=O)C(C)C)c(C)c2)c1O` [Compound 455], the pest or weed control at 100 ppm in assay [1] (setting [14]) is under 25%; in [2] (setting [14]), 25 to 74%; in [9] (setting [14]), 25 to 74%; in assay [10] (setting [14]), under 25%; in [11], under 25%. Moreover, the inhibition at 25 ppm in assay [3] (25 ppm in growth medium) was under 80%; in assay [4] (25 ppm in growth medium), over 80%; in [5] it was under 80%; in assay [6], over 80%; in assay [7] it was under 80%; in assay [8], under 80%.

For `COc1ccnc(C(=O)N[C@@H]2C(=O)O[C@@H](C)C[C@@H](C)C(=O)O[C@@H]2C)c1O` [Compound 381], the pest or weed control at 100 ppm in assay [1] (setting [14]) was under 25%; in [2] (setting [14]), under 25%; in assay [9] (setting [14]) it was under 25%; in [10] (setting [14]) it was 25 to 74%; in assay [11], under 25%. Further, the inhibition at 25 ppm in assay [3] (25 ppm in growth medium) was over 80%; in assay [4] (25 ppm in growth medium) it was over 80%; in [5] it was under 80%; in [6], under 80%; in assay [7], under 80%; in [8] it was under 80%.

Consider `COc1ccnc(C(=O)Nc2ccc(Oc3ccc(C(F)(F)F)cc3)nc2)c1O` [Compound 472], for which the pest or weed control at 100 ppm was under 25% in assay [1] (setting [13]); 25 to 74% in assay [2] (setting [13]); 25 to 74% in assay [9] (setting [13]); 25 to 74% in [10] (setting [13]); under 25% in [11]. In addition, the inhibition at 25 ppm in assay [3] (25 ppm in the growth medium) is under 80%; in assay [4] (25 ppm in the growth medium), under 80%; in assay [5] it was under 80%; in assay [6] it was under 80%; in [7] it was over 80%; in [8] it was under 80%.

Consider `C/C=C/C(=O)Oc1c(OC)ccnc1C(=O)N[C@H]1COC(=O)[C@H](Cc2ccccc2)[C@@H](OC(=O)C(C)C)[C@H](C)OC1=O` [Compound 600], for which the pest or weed control at 100 ppm in [1] (setting [12]) and in assay [11] was under 25% throughout. Besides, the “LEPTNO in vivo 1 Day Protectant” value in assay [2] (setting [12]) is listed as “+ +”. The inhibition at 25 ppm in [3] (25 ppm in growth medium) is under 80%; in assay [4] (25 ppm in growth medium), over 80%; in [5], under 80%; in [6] it was under 80%; in assay [7], over 80%; in [8] it was under 80%. Moreover, the “SEPTTR in vivo 1 Day Protectant” value in assay [9] (setting [12]) is recorded as “+ +”. In assay [10] (setting [12]), the “PUCCRT in vivo 1 Day Protectant” value is on record as “+ +”.
